Values quoted from earlier work in PMC8172013, “Carboxylesterase Notum Is a Druggable Target to Modulate Wnt Signaling” (Journal of Medicinal Chemistry, 2021).
Where two headings read alike, the source gives them in different places. One block for each compound: values may come before it.

Columns and labels:
Notum [1] = biological target: T1, Notum (Homo sapiens, UniProt Q6P988); details: TCF/LEF assay
T1 sequence (Q6P988 20-496): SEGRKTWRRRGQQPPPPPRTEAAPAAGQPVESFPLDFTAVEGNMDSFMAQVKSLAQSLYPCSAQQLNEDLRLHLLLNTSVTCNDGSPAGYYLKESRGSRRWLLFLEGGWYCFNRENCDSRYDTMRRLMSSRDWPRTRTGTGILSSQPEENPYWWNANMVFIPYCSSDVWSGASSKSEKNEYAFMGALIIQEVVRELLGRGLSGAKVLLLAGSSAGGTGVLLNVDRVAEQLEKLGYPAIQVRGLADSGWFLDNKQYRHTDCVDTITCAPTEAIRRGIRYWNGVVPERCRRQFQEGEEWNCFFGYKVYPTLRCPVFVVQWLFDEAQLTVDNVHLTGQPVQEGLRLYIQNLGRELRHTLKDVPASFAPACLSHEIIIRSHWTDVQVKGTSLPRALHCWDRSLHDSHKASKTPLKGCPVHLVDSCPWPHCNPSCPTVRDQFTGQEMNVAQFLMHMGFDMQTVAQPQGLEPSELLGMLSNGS

Notum [2] = biological target: T1, Notum
Notum [3] = biological target: T1, Notum; details: OPTS assay
[4] = tested on: midshaft femur cortical thickness; details: mice, 3, 10, 30 mg/kg po daily, 25 days
bone formation = tested on: bone formation; parameters: method as in PMID 19072540, PMID 19932972; details: ex vivo model of bone formation
[5] = mouse, 10 mg/kg po

EC50 (Notum [1]): ~100 nM
SMILES: Cc1sc2ncnc(SCC(=O)O)c2c1Cl [Compound 37]

IC50 (Notum [3]): 4200 nM
SMILES: O=c1[nH]nc(C2CCN(c3ccc(Cl)c(C(F)(F)F)c3)C2)o1 (centres unmarked) [Compound 63]

IC50 (Notum [2]; stated in words): sub-micromolar
SMILES: C#CCN1CCN(C(=O)ON2C(=O)C3CN(Cc4ccc(Cl)cc4)CCN3C2=O)c2ccccc21 (centres unmarked) [ABC99yne]

IC50 (Notum [3]): 150 nM
SMILES: Cc1cc(C(=O)O)c(C)n1-c1cccc(C(C)C)c1F [Compound 60]

EC50 (Notum [1]): ~100 nM
SMILES: CCCc1sc2ncnc(SCC(=O)O)c2c1Cl [Compound 38]

More lines, now with the values behind:

SMILES: O=C(c1ccc(Cl)cc1)N1CCN2C(=O)N(OC(=O)N3CCOc4ccccc43)C(=O)C2C1 (centres unmarked) [ABC101]
EC50 (Notum [1]): > 5000 nM | IC50 (Notum [2]; competitive gel-based ABPP, read-out: Notum IC50): > 10000 nM

SMILES: O=C(C1CCN(c2ccc(Cl)c(C(F)(F)F)c2)C1)N1CC(F)(F)C1 (centres unmarked) [Compound 62]
IC50 (Notum [3]): 260 nM

SMILES: Cc1cc(C(=O)O)c(C)n1C1CC1 [Compound 58]
IC50 (Notum [3]): 6300 nM

SMILES: O=C(O)CSc1ncnc2c(C3CC3)c(Cl)sc12 [Compound 26]
midshaft femur cortical thickness [4]: increases in midshaft femur cortical thickness at all doses tested

SMILES: CC(C)(C)NC(=O)N1CCC[C@H]1C(=O)N1CCC(NS(=O)(=O)c2ccc(S(=O)(=O)c3ccccc3)cc2C(F)(F)F)CC1 [WAY-362692]
increase in total bone area (bone formation): 75%

SMILES: Cc1c(Cl)sc2ncnc(SCC(=O)N3CC(=O)N(C)C3)c12 [Compound 40]
IC50 (Notum [3]): 2.4 nM | plasma exposure [5]: low plasma exposure

SMILES: Cc1csc2c(SCC(=O)O)ncnc12 [Compound 36]
IC50 (Notum [3]): 190 nM
